Values of other authors as cited in PMC7373161, “Impact of Food and Drink Administration Vehicles on Paediatric Formulation Performance: Part 1—Effects on Solubility of Poorly Soluble Drugs” (AAPS PharmSciTech, 2020).

Nc1ccc(O)c(C(=O)O)c1 [mesalazine]
isoelectric point (pI): 4.3 pH
